Laboratory results taken from publication PMC8037810, “L-Glutaminase Synthesis by Marine Halomonas meridiana Isolated from the Red Sea and Its Efficiency against Colorectal Cancer Cell Lines” (Molecules, 2021).

Tested on: T1, L-glutaminase
T1 construct: gene glsA; native enzyme purified from culture supernatant (ammonium sulfate, Sephadex G-200); about 57 kDa by SDS-PAGE
Assay: Nesslerization of released ammonia; Lineweaver-Burk plot
Format: biochemical, Vreelandella aquamarina
Conditions: Tris buffer, 37 °C; pH of kinetic assay not stated (general assay pH 7, optimum pH 8.0); assayed L-glutamine 0.01-0.8 M, far above the printed Km

- Km: 12.2 µM
SMILES: NC(=O)CC[C@H](N)C(=O)O [L-glutamine]
